Experiments:
Homo sapiens = species on record: Homo sapiens; assay: In vitro for its inhibitory activity against platelet aggregation induced by ADP; format: functional
[1] = Displacement of [3H]SKF-107260 from […] integrin; parameters: species or system Homo sapiens
[2] = biological target: Integrin alpha-IIb/beta-3 (Homo sapiens, UniProt P05106+P08514); assay: Displacement of [3H]SKF-107260 from alpha IIb beta3 integrin; format: protein-complex assay
Integrin alpha-IIb/beta-3, sequence (P05106 27-788 limits assumed): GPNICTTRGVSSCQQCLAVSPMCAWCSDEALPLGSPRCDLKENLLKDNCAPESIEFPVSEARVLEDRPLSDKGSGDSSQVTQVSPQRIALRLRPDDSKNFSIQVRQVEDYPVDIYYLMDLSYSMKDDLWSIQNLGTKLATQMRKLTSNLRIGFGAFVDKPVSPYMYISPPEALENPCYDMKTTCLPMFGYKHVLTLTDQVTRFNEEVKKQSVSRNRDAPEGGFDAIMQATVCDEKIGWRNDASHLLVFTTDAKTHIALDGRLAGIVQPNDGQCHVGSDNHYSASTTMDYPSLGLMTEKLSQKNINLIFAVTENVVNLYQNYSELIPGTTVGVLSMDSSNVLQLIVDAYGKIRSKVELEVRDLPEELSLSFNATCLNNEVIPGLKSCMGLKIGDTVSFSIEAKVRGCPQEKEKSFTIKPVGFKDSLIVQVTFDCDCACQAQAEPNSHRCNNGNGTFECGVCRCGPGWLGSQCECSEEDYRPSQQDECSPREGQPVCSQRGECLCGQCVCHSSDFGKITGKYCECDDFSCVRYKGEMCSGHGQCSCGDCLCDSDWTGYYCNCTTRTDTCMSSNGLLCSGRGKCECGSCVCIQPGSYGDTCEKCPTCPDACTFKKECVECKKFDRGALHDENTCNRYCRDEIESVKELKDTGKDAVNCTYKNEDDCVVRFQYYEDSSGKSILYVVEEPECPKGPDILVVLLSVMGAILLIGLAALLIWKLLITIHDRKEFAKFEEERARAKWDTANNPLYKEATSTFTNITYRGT
Integrin alpha-IIb/beta-3, sequence (P08514 32-887 limits assumed): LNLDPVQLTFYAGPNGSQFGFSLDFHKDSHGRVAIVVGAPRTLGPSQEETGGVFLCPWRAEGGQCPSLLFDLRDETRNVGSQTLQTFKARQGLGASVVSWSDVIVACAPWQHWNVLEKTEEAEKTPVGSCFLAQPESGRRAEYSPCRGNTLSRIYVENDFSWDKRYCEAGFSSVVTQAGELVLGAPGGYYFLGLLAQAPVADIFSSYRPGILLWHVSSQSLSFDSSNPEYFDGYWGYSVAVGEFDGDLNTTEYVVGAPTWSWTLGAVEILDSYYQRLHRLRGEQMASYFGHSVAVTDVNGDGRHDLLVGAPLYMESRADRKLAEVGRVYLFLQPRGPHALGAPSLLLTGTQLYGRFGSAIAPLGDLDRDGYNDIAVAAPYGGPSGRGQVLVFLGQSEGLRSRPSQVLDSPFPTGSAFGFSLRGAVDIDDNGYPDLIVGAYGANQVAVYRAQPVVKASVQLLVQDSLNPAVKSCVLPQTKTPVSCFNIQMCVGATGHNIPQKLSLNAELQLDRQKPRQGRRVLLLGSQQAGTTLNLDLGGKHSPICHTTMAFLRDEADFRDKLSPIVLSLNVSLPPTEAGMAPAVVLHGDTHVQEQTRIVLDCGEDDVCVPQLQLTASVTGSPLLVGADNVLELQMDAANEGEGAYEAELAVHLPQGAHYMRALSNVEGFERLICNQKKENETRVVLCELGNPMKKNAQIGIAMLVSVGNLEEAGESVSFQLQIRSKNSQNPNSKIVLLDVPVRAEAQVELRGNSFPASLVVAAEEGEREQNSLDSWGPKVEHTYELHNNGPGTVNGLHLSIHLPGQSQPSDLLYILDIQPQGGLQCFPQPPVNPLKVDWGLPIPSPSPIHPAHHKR
Integrin alpha-IIb/beta-3, sequence (P08514 891-1039 limits assumed): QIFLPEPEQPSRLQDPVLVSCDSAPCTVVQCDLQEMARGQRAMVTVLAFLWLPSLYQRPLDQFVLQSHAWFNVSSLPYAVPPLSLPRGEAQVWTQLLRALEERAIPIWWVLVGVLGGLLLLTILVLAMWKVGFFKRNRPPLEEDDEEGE

SMILES | IC50 (Homo sapiens) [µM] | Ki [1] [µM] | Ki [2] [µM]
N=C(N)Nc1ccc(C(=O)NCCC(=O)N[C@@H](CC(=O)O)C(=O)N[C@H](Cc2c[nH]c3ccccc23)C(=O)O)cc1 | 0.07 | – | –
N=C(N)NCc1ccc(C(=O)NCCC(=O)N[C@@H](CC(=O)O)C(=O)N[C@H](Cc2c[nH]c3ccccc23)C(=O)O)cc1 | 0.71 | – | –
N=C(N)c1ccc(C(=O)NCCC(=O)N[C@@H](CC(=O)O)C(=O)N[C@H](Cc2ccc3ccccc3c2)C(=O)O)cc1 | 0.044 | – | –
N=C(N)Nc1ccc(C(=O)NC(Cc2ccc(O)cc2)C(=O)N[C@@H](CC(=O)O)C(=O)N[C@H](Cc2c[nH]c3ccccc23)C(=O)O)cc1 (some centres undefined) | > 50 | – | –
N=C(N)c1ccc(C(=O)NCCCC(=O)N[C@@H](CC(=O)O)C(=O)N[C@H](Cc2c[nH]c3ccccc23)C(=O)O)cc1 | > 50 | – | –
N=C(N)Nc1ccc(C(=O)NCCC(=O)N[C@@H](CC(=O)O)C(=O)N[C@H](Cc2ccc3ccccc3c2)C(=O)O)cc1 | 0.32 | – | –
N=C(N)Nc1ccc(C(=O)NCCC(=O)N[C@@H](CC(=O)O)C(=O)N[C@@H](C(=O)O)c2ccccc2)cc1 | 2.9 | – | –
N=C(N)Nc1ccc(C(=O)NCCC(=O)N[C@@H](CC(=O)O)C(=O)N[C@H](Cc2ccccc2)C(=O)O)cc1 | 0.39 | – | –
N=C(N)Nc1ccc(C(=O)NCCC(=O)N[C@@H](CC(=O)O)C(=O)N[C@H](CC2CCCCC2)C(=O)O)cc1 | 0.088 | – | –
N=C(N)Nc1ccc(C(=O)NCCC(=O)N[C@@H](CC(=O)O)C(=O)N[C@@H](Cc2ccccc2)C(=O)O)cc1 | 6.1 | – | –
N=C(N)Nc1ccc(C(=O)NCCC(=O)N[C@@H](CC(=O)O)C(=O)N[C@H](Cc2ccc(O)cc2)C(=O)O)cc1 | 0.19 | – | –
N=C(N)Nc1ccc(C(=O)NCCCC(=O)N[C@@H](CC(=O)O)C(=O)N[C@H](Cc2c[nH]c3ccccc23)C(=O)O)cc1 | > 50 | – | –
N=C(N)c1ccc(C(=O)NCCC(=O)N[C@@H](CC(=O)O)C(=O)N[C@@H](Cc2ccc(O)cc2)C(=O)O)cc1 | 1.2 | – | –
N=C(N)Nc1ccc(C(=O)NCCC(=O)N[C@@H](CC(=O)O)C(=O)N[C@H](Cc2ccc(F)cc2)C(=O)O)cc1 | 1.7 | – | –
N=C(N)Nc1ccc(C(=O)NCC(=O)N[C@@H](CC(=O)O)C(=O)N[C@H](Cc2c[nH]c3ccccc23)C(=O)O)cc1 | 0.6 | – | –
N=C(N)Nc1ccc(C(=O)NCCC(=O)N[C@@H](CC(=O)O)C(=O)N[C@H](Cc2cccc3ccccc23)C(=O)O)cc1 | 0.77 | – | –
N=C(N)Nc1ccc(C(=O)N2CCC(C(=O)N[C@@H](CC(=O)O)C(=O)N[C@H](Cc3c[nH]c4ccccc34)C(=O)O)CC2)cc1 | 4.6 | – | –
N=C(N)c1ccc(C(=O)NCCC(=O)N[C@@H](CC(=O)O)C(=O)NC(Cc2ccc(F)cc2)C(=O)O)cc1 (single isomer, unassigned) | 0.047 | – | –
N=C(N)c1ccc(C(=O)NCCC(=O)N[C@@H](CC(=O)O)C(=O)N[C@H](Cc2c[nH]c3ccccc23)C(=O)O)cc1 (single isomer, unassigned) | 0.026 | 35 | 0.0023
N=C(N)c1ccc(C(=O)NCCC(=O)N[C@@H](CC(=O)O)C(=O)NC(Cc2ccc(O)cc2)C(=O)O)cc1 (single isomer, unassigned) | 0.02 | 75 | 0.0021

Source: ChEMBL document CHEMBL1151085, “Design, synthesis and SAR of RGD peptide hybrids as highly efficient inhibitors of platelet aggregation” (Bioorg Med Chem Lett, 1995)
